ChEMBL document CHEMBL1136991, “Novel potent BRAF inhibitors: toward 1 nM compounds through optimization of the central phenyl ring” (J Med Chem, 2009)

Experiments:
[1] = Inhibition of PHK at 1 uM relative to control
[2] = biological target: Mitogen-activated protein kinase 3 (Homo sapiens) (UniProt P27361); assay: Inhibition of ERK1 at 1 uM relative to control
[3] = biological target: T1, Serine/threonine-protein kinase Sgk1 (Homo sapiens) (UniProt O00141); assay: Inhibition of SGK1 at 1 uM relative to control
T1 sequence (whole entry): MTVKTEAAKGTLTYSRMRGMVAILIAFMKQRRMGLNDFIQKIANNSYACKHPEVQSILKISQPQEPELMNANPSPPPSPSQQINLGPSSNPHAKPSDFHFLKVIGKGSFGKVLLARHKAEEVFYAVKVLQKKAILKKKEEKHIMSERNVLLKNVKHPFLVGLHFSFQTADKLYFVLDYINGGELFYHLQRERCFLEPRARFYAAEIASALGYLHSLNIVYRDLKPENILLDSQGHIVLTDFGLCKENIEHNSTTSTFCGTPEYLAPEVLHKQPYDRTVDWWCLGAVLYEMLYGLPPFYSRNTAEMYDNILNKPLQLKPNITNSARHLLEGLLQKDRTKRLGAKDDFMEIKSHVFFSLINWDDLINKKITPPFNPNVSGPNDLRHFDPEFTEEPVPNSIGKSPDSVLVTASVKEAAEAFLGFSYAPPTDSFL

[4] = biological target: Serine/threonine-protein kinase pim-1 (Homo sapiens) (UniProt P11309); assay: Inhibition of PIM1 at 1 uM relative to control
[5] = biological target: T2, Protein kinase C zeta type (Homo sapiens) (UniProt Q05513); assay: Inhibition of PKCzeta at 1 uM relative to control
T2 sequence (whole entry): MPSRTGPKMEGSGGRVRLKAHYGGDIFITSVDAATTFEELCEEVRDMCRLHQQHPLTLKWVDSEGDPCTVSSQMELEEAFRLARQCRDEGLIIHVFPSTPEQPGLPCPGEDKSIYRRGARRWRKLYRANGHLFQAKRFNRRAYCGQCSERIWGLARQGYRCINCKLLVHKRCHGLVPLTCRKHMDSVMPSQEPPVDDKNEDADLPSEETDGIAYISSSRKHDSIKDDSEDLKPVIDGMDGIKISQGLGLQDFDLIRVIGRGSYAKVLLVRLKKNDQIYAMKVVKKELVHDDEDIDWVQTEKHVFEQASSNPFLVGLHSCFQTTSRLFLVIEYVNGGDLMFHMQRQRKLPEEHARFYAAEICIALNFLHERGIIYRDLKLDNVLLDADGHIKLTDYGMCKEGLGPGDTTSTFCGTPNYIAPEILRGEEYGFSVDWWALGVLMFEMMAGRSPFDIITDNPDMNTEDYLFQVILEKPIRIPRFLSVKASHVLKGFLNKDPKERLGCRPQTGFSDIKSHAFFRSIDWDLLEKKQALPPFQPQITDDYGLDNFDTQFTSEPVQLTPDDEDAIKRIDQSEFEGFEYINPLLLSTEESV

[6] = Inhibition of CK2 at 1 uM relative to control
[7] = biological target: T3, Dual specificity tyrosine-phosphorylation-regulated kinase 2 (Homo sapiens) (UniProt Q92630); assay: Inhibition of DYRK2 at 1 uM relative to control
T3 sequence (whole entry): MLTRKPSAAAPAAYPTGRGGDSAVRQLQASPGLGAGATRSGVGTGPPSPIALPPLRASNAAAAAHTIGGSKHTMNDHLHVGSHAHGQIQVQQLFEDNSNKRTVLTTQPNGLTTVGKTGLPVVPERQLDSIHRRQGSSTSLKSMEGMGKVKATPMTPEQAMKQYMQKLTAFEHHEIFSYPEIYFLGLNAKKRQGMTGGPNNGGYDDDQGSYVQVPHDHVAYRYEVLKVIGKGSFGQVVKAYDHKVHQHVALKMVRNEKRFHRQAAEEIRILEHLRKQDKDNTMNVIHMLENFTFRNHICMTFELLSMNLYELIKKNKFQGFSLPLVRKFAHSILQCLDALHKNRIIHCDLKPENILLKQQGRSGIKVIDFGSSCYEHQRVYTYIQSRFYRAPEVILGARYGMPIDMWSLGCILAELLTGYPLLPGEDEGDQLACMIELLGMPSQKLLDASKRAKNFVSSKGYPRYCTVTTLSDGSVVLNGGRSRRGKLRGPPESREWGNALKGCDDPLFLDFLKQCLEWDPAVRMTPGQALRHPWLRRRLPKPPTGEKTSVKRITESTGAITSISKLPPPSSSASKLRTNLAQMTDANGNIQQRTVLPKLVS

[8] = biological target: Cyclin-dependent kinase 2 (Homo sapiens) (UniProt P24941); assay: Inhibition of CDK2/cyclin A at 1 uM relative to control
[9] = biological target: T4, Serine/threonine-protein kinase BRSK2 (Homo sapiens) (UniProt Q8IWQ3); assay: Inhibition of BRSK2 at 1 uM relative to control
T4 sequence (whole entry): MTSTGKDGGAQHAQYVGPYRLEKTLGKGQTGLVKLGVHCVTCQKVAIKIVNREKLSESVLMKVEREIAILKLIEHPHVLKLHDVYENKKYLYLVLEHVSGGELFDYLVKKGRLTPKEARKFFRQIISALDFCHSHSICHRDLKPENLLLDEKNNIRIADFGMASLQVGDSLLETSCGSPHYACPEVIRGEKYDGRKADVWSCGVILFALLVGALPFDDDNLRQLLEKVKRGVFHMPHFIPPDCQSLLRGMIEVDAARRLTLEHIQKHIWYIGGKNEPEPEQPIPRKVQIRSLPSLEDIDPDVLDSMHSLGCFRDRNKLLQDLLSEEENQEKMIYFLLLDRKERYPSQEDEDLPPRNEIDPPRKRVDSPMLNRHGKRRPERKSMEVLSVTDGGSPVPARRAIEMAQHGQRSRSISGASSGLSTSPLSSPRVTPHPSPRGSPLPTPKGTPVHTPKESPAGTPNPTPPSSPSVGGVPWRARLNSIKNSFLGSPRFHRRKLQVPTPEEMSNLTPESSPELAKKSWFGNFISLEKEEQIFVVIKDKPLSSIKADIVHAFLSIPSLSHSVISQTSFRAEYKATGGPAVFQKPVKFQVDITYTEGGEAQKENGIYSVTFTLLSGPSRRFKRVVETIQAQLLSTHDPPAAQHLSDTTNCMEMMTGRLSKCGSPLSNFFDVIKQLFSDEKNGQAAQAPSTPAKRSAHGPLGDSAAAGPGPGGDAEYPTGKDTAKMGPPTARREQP

Mitogen-activated protein kinase 3 (Homo sapiens), sequence (P27361 whole entry): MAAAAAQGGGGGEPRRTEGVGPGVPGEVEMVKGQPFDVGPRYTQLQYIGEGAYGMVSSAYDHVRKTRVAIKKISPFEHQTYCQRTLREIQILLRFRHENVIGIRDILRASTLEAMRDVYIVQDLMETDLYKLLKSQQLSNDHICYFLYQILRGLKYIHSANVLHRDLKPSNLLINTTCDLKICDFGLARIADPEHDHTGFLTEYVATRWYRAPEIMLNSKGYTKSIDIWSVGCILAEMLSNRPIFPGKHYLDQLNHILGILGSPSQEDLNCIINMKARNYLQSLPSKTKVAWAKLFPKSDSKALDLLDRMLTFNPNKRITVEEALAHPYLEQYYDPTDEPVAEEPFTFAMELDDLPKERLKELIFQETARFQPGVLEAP
Serine/threonine-protein kinase pim-1 (Homo sapiens), sequence (P11309 whole entry, looked up): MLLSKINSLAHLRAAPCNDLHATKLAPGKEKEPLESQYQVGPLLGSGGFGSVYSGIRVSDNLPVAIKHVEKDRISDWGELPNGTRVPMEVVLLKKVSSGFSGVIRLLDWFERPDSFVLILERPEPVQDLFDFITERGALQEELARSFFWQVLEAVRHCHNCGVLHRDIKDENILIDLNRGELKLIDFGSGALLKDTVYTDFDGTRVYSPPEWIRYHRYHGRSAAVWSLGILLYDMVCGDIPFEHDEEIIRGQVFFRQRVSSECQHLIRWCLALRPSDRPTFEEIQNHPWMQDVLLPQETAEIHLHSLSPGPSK

residual activity [1] [%]	residual activity [2] [%]	residual activity [3] [%]	residual activity [4] [%]	residual activity [5] [%]	residual activity [6] [%]	residual activity [7] [%]	residual activity [8] [%]	residual activity [9] [%]	Compound
75	100	100	75	75	100	100	100	75	CC(C)(C)c1cccc(NC(=O)Nc2ccc(Oc3ccnc4[nH]c(=O)[nH]c34)c3ccccc23)c1
100	100	100	75	75	100	100	100	50	O=C(Nc1cc(C(F)(F)F)ccc1F)Nc1ccc(Oc2ccnc3[nH]c(=O)[nH]c23)c2ccccc12
100	100	100	100	75	100	100	100	50	CSc1cc(Oc2ccnc3[nH]c(=O)[nH]c23)ccc1NC(=O)Nc1cccc(C(F)(F)F)c1
